# Patent US4088778A, “Method for the treatment of hypertension” (priority 1975, dated 1978)
# Experiment: Clinical Test I, double blind: subjective symptoms
# Type: in vivo, human patients
# Conditions: for Stiffness in Shoulders: Improvement ratio: P group 45.2
# Method: 94 patients of hypertension or arteriosclerosis having subjective symptoms were tested, and some of them suffered from complications such as ischemia heart disease, hypertensive heart disease and encephalomalacia.
# As the active drug, there were employed hard capsules, each containing 100 mg of TN.
# Two capsules were orally administered at one time, and the administration was conducted three times a day after eating. The period of the administration was principally 4 weeks or 6 weeks. During this period, the administration was performed continuously. Combined administration of drugs having the same function as that of TN (vitamin E drugs, nicotinic acid, its derivatives and peripheral vasolidators) was prohibited. Drugs which had been continuously administered since before the start of the administration of TN were similarly administered according to the disease case and symptom, and change of the prescription during the test was avoided.
# In the above Table, the "Improved" means that the symptom was improved by at least one grade as compared with the symptom before the administration,and each number denotes the total number of the patients in whom the symptom was thus improved.
# *The patients were divided into two groups, one in which the symptom was
# improved by at least 2 grades (the sum of the patients in which the
# symptoms were improved by 2, 3 and 4 grades) and the other in which the
# symptom was improved by one grade, unchanged or worsened. The assay was
# conducted on these two groups. (In other cases, the patients were divided
# into two groups, one in which the symptom was improved by one grade and
# the other in which the symptom was unchanged or worsened, and the assay
# was made on these two groups.)
# according to Fischer direct probability calculation method.
# [1] = number of patients, total 3 (Table 9)
# [2] = number of patients, total 7 (Table 9)
# [3] = number of patients, total 8 (Table 9)
# [4] = number of patients, total 9 (Table 9)
# [5] = number of patients, total 9 (Table 10)
# [6] = number of patients, total 11 (Table 9)
# [7] = number of patients, total 13 (Table 9)
# [8] = number of patients, total 14 (Table 9)
# [9] = number of patients, total 15 (Table 9)
# [10] = number of patients, total 16 (Table 9)
# [11] = number of patients, total 16 (Table 10)
# [12] = number of patients, total 17 (Table 9)
# [13] = number of patients, total 18 (Table 9)
# [14] = number of patients, total 18 (Table 10)
# [15] = number of patients, total 23 (Table 9)
# [16] = number of patients, total 23 (Table 10)
# [17] = number of patients, total 25 (Table 9)
# [18] = number of patients, total 25 (Table 10)
# [19] = number of patients, total 26 (Table 9)
# [20] = number of patients, total 26 (Table 10)
# [21] = number of patients, total 28 (Table 9)
# [22] = number of patients, total 28 (Table 10)
# [23] = number of patients, total 30 (Table 9)
# [24] = number of patients, total 51 (Table 10)
compound,measurement,setting,value
"Cc1c(C)c2c(c(C)c1OC(=O)c1cccnc1)CCC(C)(CCCC(C)CCCC(C)CCCC(C)C)O2 (racemic) [TN, dl-α-tocopheryl nicotinate]",Forgetfulness: Improvement Ratio,"Table 9, P group 21.7",38.9%
same,Virtigo: Improvement Ratio,"Table 9, P group 37.5",66.7%
same,Pains on Waist and Back: Improvement Ratio,"Table 9, P group 40.0",64.7%
same,Syncope: Improvement Ratio,"Table 9, P group 40.0",75.0%
same,Chill on Limbs: Improvement Ratio,"Table 9, P group 41.2",35.7%
same,Stiffness in Nape: Improvement ratio,"Table 9, P group 43.8",68.0%
same,Stiffness in Shoulders: Improvement ratio,Table 9,65.4%
same,Insomnia: Improvement ratio,"Table 9, P group 47.4",83.3%
same,Dizzy Feeling: Improvement ratio,"Table 9, P group 50.0",81.3%
same,Irritation: Improvement Ratio,"Table 9, P group 50.0",66.7%
same,Rush of Blood: Improvement Ratio,"Table 9, P group 50.0",69.2%
same,Tinnitus: Improvement Ratio,"Table 9, P group 52.6",50.0%
same,Palsy in Limbs: Improvement ratio,"Table 9, P group 53.8",82.6%
same,Short Breath: Improvement Ratio,"Table 9, P group 53.8",42.9%
same,Heaviness in Head: Improvement Ratio,"Table 9, P group 62.5",82.1%
same,Oppression on Breast: Improvement Ratio,"Table 9, P group 63.6",62.5%
same,Warmness: Improvement Ratio,"Table 9, P group 66.7",77.8%
same,Languor: Improvement Ratio,"Table 9, P group 70.6",60.0%
same,Palpitation: Improvement Ratio,"Table 9, P group 76.9",72.7%
same,Depression: Improvement Ratio,"Table 9, P group 77.8",42.9%
same,Headache: Improvement ratio,"Table 9, P group 78.6",83.3%
same,Pain on Breast: Improvement Ratio,"Table 9, P group 100.0",71.4%
same,Vertigo: Improvement ratio,"Table 10, P group 37.5",66.7%
same,Stiffness in Nape: Improvement ratio,"Table 10, P group 43.8, chi0^2 = 3.3270, P < 0.10",68.0%
same,Stiffness in Shoulders and Nape: Improvement ratio,"Table 10, P group 44.4, chi0^2 = 5.6104, P < 0.025",66.7%
same,Stiffness in Shoulders: Improvement ratio,Table 10,65.4%
same,Vertigo plus Dizzy Feeling: Improvement ratio,"Table 10, P group 46.4, chi0^2 = 8.3955, P < 0.005",73.1%
same,Insomnia: Improvement ratio,"Table 10, P group 47.4, P = 0.0247",83.3%
same,Dizzy Feeling: Improvement ratio,"Table 10, P group 50.0, chi0^2 = 7.4243, P < 0.01",81.3%
same,Palsy in Limbs: Improvement ratio,"Table 10, P group 53.8, P = 0.0318",82.6%
same,Headache: Improvement ratio,"Table 10, P group 62.5, chi0^2 = 3.1277, P < 0.10",82.1%
same,"relief of headache, vertigo, dizzy feeling, syncope, stiffness in the shoulders, stiffness in the nape, palsy in limbs, insomnia and pains on the waist and the back","human, in vivo",excellent effects were attained
same,Irritation: Improved,[1],2
same,Irritation: Unchanged or Worsened,[1],1
same,Depression: Improved,[2],3
same,Depression: Unchanged or Worsened,[2],4
same,Pain on Breast: Improved,[2],5
same,Pain on Breast: Unchanged or Worsened,[2],2
same,Short Breath: Improved,[2],3
same,Short Breath: Unchanged or Worsened,[2],4
same,Oppression on Breast: Improved,[3],5
same,Oppression on Breast: Unchanged or Worsened,[3],3
same,Syncope: Improved,[3],6
same,Syncope: Unchanged or Worsened,[3],2
same,Virtigo: Improved,[4],6
same,Virtigo: Unchanged or Worsened,[4],3
same,Warmness: Improved,[4],7
same,Warmness: Unchanged or Worsened,[4],2
same,Vertigo: Improved by 1 grade,[5],1
same,Vertigo: Improved by 2 grades,[5],3
same,Vertigo: Improved by 3 grades,[5],1
same,Vertigo: Improved by 4 grades,[5],1
same,Vertigo: Not Changed,[5],2
same,Vertigo: Worsened by 1 grade,[5],1
same,Vertigo: Worsened by 2 grades,[5],0
same,Palpitation: Improved,[6],8
same,Palpitation: Unchanged or Worsened,[6],3
same,Rush of Blood: Improved,[7],9
same,Rush of Blood: Unchanged or Worsened,[7],4
same,Chill on Limbs: Improved,[8],5
same,Chill on Limbs: Unchanged or Worsened,[8],9
same,Languor: Improved,[9],9
same,Languor: Unchanged or Worsened,[9],6
same,Dizzy Feeling: Improved,[10],13
same,Dizzy Feeling: Unchanged or Worsened,[10],3
same,Tinnitus: Improved,[10],8
same,Tinnitus: Unchanged or Worsened,[10],8
same,Dizzy Feeling: Improved by 1 grade,[11],0
same,Dizzy Feeling: Improved by 2 grades,[11],11
same,Dizzy Feeling: Improved by 3 grades,[11],1
same,Dizzy Feeling: Improved by 4 grades,[11],1
same,Dizzy Feeling: Not Changed,[11],2
same,Dizzy Feeling: Worsened by 1 grade,[11],1
same,Dizzy Feeling: Worsened by 2 grades,[11],0
same,Pains on Waist and Back: Improved,[12],11
same,Pains on Waist and Back: Unchanged or Worsened,[12],6
same,Forgetfulness: Improved,[13],7
same,Forgetfulness: Unchanged or Worsened,[13],11
same,Insomnia: Improved,[13],15
same,Insomnia: Unchanged or Worsened,[13],3
same,Insomnia: Improved by 1 grade,[14],7
same,Insomnia: Improved by 2 grades,[14],7
same,Insomnia: Improved by 3 grades,[14],0
same,Insomnia: Improved by 4 grades,[14],1
same,Insomnia: Not Changed,[14],2
same,Insomnia: Worsened by 1 grade,[14],1
same,Insomnia: Worsened by 2 grades,[14],0
same,Palsy in Limbs: Improved,[15],19
same,Palsy in Limbs: Unchanged or Worsened,[15],4
same,Palsy in Limbs: Improved by 1 grade,[16],11
same,Palsy in Limbs: Improved by 2 grades,[16],7
same,Palsy in Limbs: Improved by 3 grades,[16],1
same,Palsy in Limbs: Improved by 4 grades,[16],0
same,Palsy in Limbs: Not Changed,[16],4
same,Palsy in Limbs: Worsened by 1 grade,[16],0
same,Palsy in Limbs: Worsened by 2 grades,[16],0
same,Stiffness in Nape: Improved,[17],17
same,Stiffness in Nape: Unchanged or Worsened,[17],8
same,Stiffness in Nape: Improved by 1 grade,[18],11
same,Stiffness in Nape: Improved by 2 grades,[18],5
same,Stiffness in Nape: Improved by 3 grades,[18],1
same,Stiffness in Nape: Improved by 4 grades,[18],0
same,Stiffness in Nape: Not Changed,[18],5
same,Stiffness in Nape: Worsened by 1 grade,[18],2
same,Stiffness in Nape: Worsened by 2 grades,[18],1
same,Vertigo plus Dizzy Feeling: Improved by 1 grade,[18],1
same,Vertigo plus Dizzy Feeling: Improved by 2 grades,[18],14
same,Vertigo plus Dizzy Feeling: Improved by 3 grades,[18],2
same,Vertigo plus Dizzy Feeling: Improved by 4 grades,[18],2
same,Vertigo plus Dizzy Feeling: Not Changed,[18],4
same,Vertigo plus Dizzy Feeling: Worsened by 1 grade,[18],2
same,Vertigo plus Dizzy Feeling: Worsened by 2 grades,[18],0
same,Stiffness in Shoulders: Improved,[19],17
same,Stiffness in Shoulders: Unchanged or Worsened,[19],9
same,Stiffness in Shoulders: Improved by 1 grade,[20],10
same,Stiffness in Shoulders: Improved by 2 grades,[20],5
same,Stiffness in Shoulders: Improved by 3 grades,[20],0
same,Stiffness in Shoulders: Improved by 4 grades,[20],2
same,Stiffness in Shoulders: Not Changed,[20],8
same,Stiffness in Shoulders: Worsened by 1 grade,[20],1
same,Stiffness in Shoulders: Worsened by 2 grades,[20],0
same,Heaviness in Head: Improved,[21],23
same,Heaviness in Head: Unchanged or Worsened,[21],5
same,Headache: Improved by 1 grade,[22],7
same,Headache: Improved by 2 grades,[22],12
same,Headache: Improved by 3 grades,[22],4
same,Headache: Improved by 4 grades,[22],0
same,Headache: Not Changed,[22],4
same,Headache: Worsened by 1 grade,[22],1
same,Headache: Worsened by 2 grades,[22],0
same,Headache: Improved,[23],25
same,Headache: Unchanged or Worsened,[23],5
same,Stiffness in Shoulders and Nape: Improved by 1 grade,[24],13
same,Stiffness in Shoulders and Nape: Improved by 2 grades,[24],21
same,Stiffness in Shoulders and Nape: Improved by 3 grades,[24],1
same,Stiffness in Shoulders and Nape: Improved by 4 grades,[24],2
same,Stiffness in Shoulders and Nape: Not Changed,[24],3
same,Stiffness in Shoulders and Nape: Worsened by 1 grade,[24],1
same,Stiffness in Shoulders and Nape: Worsened by 2 grades,[24],0
